{"source": "patent US20080103205A1", "about": "“Pesticidal compositions and methods of use” (priority 2006, published 2008)", "key": {"Meloidogyne incognita": {"test_system": "Meloidogyne incognita", "assay": "Toxicity test, J2 juveniles of Meloidogyne incognita, 96 well micro plate", "assay_type": "in vivo", "details": "Meloidogyne incognita", "method": "(§1) Methodology: Toxicity tests were conducted using J2 juveniles of Meloidogyne incognita adult Caenorhabditis elegans collected from nematode-infested tomato plant roots and culture Petri plates, respectively. Test concentrations of 50, 100, 200, 300, or 400 ppm were prepared in 0.2% dimethylsulfoxide (DMSO) in tap water. Aliquots (300 microliters (ul)) were applied to a 96 well micro plate and a 20 ul aqueous solution containing nematodes was added. The number of nematodes in 20 ul ranged from 17 to 30. Micro plates were sealed with Parafilm™ and incubated at room temperature. Similar tests conducted with 0.2% DMSO in tap water served as controls. Nematode mortality was checked at 24, 48, 72, 120, and 168 hr after incubation. Nematodes that were motionless for 30 sec when observed under a stereomicroscope were considered paralyzed and included in mortality counts. Each concentration was replicated five times and mean percent mortality was calculated after correcting for control mortality using Abbott's formula.\n(§2) Data Analysis: Mortality data were analyzed using PROC PROBIT (SAS) program and LC50 values were estimated."}, "Caenorhabditis elegans": {"test_system": "Caenorhabditis elegans", "assay": "Toxicity test, adult Caenorhabditis elegans, 96 well micro plate", "assay_type": "in vivo", "details": "Caenorhabditis elegans", "method": "as §1, §2"}, "[1]": {"details": "24 h, read-out: Corrected Mortality (%)"}, "[2]": {"details": "48 h, read-out: Corrected Mortality (%)"}, "[3]": {"details": "72 h, read-out: Corrected Mortality (%)"}, "[4]": {"details": "120 h, read-out: Corrected Mortality (%)"}, "[5]": {"details": "168 h, read-out: Corrected Mortality (%)"}}, "note": "Where two headings read alike, the source gives them in different places.", "data": [{"smiles": "O=C(O)c1c2ccccc2cc2ccccc12", "note": "[9-AC, anthracene-9-carboxylic acid]", "values": [{"measurement": "mortality at 50 ppm", "setting": "Meloidogyne incognita; 24 h", "value": 11, "unit": "%"}, {"measurement": "mortality at 100 ppm", "setting": "Meloidogyne incognita; 24 h", "value": 12, "unit": "%"}, {"measurement": "mortality at 200 ppm", "setting": "Meloidogyne incognita; 24 h", "value": 13, "unit": "%"}, {"measurement": "mortality at 300 ppm", "setting": "Meloidogyne incognita; 24 h", "value": 16, "unit": "%"}, {"measurement": "mortality at 400 ppm", "setting": "Meloidogyne incognita; 24 h", "value": 23, "unit": "%"}, {"measurement": "mortality at 50 ppm", "setting": "Meloidogyne incognita; [1]", "value": 10, "unit": "%"}, {"measurement": "mortality at 100 ppm", "setting": "Meloidogyne incognita; [1]", "value": 11, "unit": "%"}, {"measurement": "mortality at 200 ppm", "setting": "Meloidogyne incognita; [1]", "value": 12, "unit": "%"}, {"measurement": "mortality at 300 ppm", "setting": "Meloidogyne incognita; [1]", "value": 15, "unit": "%"}, {"measurement": "mortality at 400 ppm", "setting": "Meloidogyne incognita; [1]", "value": 22, "unit": "%"}, {"measurement": "mortality at 50 ppm", "setting": "Meloidogyne incognita; 48 h", "value": 21, "unit": "%"}, {"measurement": "mortality at 100 ppm", "setting": "Meloidogyne incognita; 48 h", "value": 27, "unit": "%"}, {"measurement": "mortality at 200 ppm", "setting": "Meloidogyne incognita; 48 h", "value": 28, "unit": "%"}, {"measurement": "mortality at 300 ppm", "setting": "Meloidogyne incognita; 48 h", "value": 37, "unit": "%"}, {"measurement": "mortality at 400 ppm", "setting": "Meloidogyne incognita; 48 h", "value": 49, "unit": "%"}, {"measurement": "mortality at 50 ppm", "setting": "Meloidogyne incognita; [2]", "value": 17, "unit": "%"}, {"measurement": "mortality at 100 ppm", "setting": "Meloidogyne incognita; [2]", "value": 23, "unit": "%"}, {"measurement": "mortality at 200 ppm", "setting": "Meloidogyne incognita; [2]", "value": 24, "unit": "%"}, {"measurement": "mortality at 300 ppm", "setting": "Meloidogyne incognita; [2]", "value": 34, "unit": "%"}, {"measurement": "mortality at 400 ppm", "setting": "Meloidogyne incognita; [2]", "value": 46, "unit": "%"}, {"measurement": "mortality at 50 ppm", "setting": "Meloidogyne incognita; 72 h", "value": 36, "unit": "%"}, {"measurement": "mortality at 100 ppm", "setting": "Meloidogyne incognita; 72 h", "value": 43, "unit": "%"}, {"measurement": "mortality at 200 ppm", "setting": "Meloidogyne incognita; 72 h", "value": 49, "unit": "%"}, {"measurement": "mortality at 300 ppm", "setting": "Meloidogyne incognita; 72 h", "value": 60, "unit": "%"}, {"measurement": "mortality at 400 ppm", "setting": "Meloidogyne incognita; 72 h", "value": 74, "unit": "%"}, {"measurement": "mortality at 50 ppm", "setting": "Meloidogyne incognita; [3]", "value": 32, "unit": "%"}, {"measurement": "mortality at 100 ppm", "setting": "Meloidogyne incognita; [3]", "value": 39, "unit": "%"}, {"measurement": "mortality at 200 ppm", "setting": "Meloidogyne incognita; [3]", "value": 46, "unit": "%"}, {"measurement": "mortality at 300 ppm", "setting": "Meloidogyne incognita; [3]", "value": 57, "unit": "%"}, {"measurement": "mortality at 400 ppm", "setting": "Meloidogyne incognita; [3]", "value": 72, "unit": "%"}, {"measurement": "mortality at 50 ppm", "setting": "Meloidogyne incognita; 120 h", "value": 58, "unit": "%"}, {"measurement": "mortality at 100 ppm", "setting": "Meloidogyne incognita; 120 h", "value": 65, "unit": "%"}, {"measurement": "mortality at 200 ppm", "setting": "Meloidogyne incognita; 120 h", "value": 67, "unit": "%"}, {"measurement": "mortality at 300 ppm", "setting": "Meloidogyne incognita; 120 h", "value": 84, "unit": "%"}, {"measurement": "mortality at 400 ppm", "setting": "Meloidogyne incognita; 120 h", "value": 97, "unit": "%"}, {"measurement": "mortality at 50 ppm", "setting": "Meloidogyne incognita; [4]", "value": 54, "unit": "%"}, {"measurement": "mortality at 100 ppm", "setting": "Meloidogyne incognita; [4]", "value": 62, "unit": "%"}, {"measurement": "mortality at 200 ppm", "setting": "Meloidogyne incognita; [4]", "value": 64, "unit": "%"}, {"measurement": "mortality at 300 ppm", "setting": "Meloidogyne incognita; [4]", "value": 83, "unit": "%"}, {"measurement": "mortality at 400 ppm", "setting": "Meloidogyne incognita; [4]", "value": 97, "unit": "%"}, {"measurement": "mortality at 50 ppm", "setting": "Meloidogyne incognita; 168 h", "value": 81, "unit": "%"}, {"measurement": "mortality at 100 ppm", "setting": "Meloidogyne incognita; 168 h", "value": 86, "unit": "%"}, {"measurement": "mortality at 200 ppm", "setting": "Meloidogyne incognita; 168 h", "value": 91, "unit": "%"}, {"measurement": "mortality at 300 ppm", "setting": "Meloidogyne incognita; 168 h", "value": 100, "unit": "%"}, {"measurement": "mortality at 400 ppm", "setting": "Meloidogyne incognita; 168 h", "value": 100, "unit": "%"}, {"measurement": "mortality at 50 ppm", "setting": "Meloidogyne incognita; [5]", "value": 79, "unit": "%"}, {"measurement": "mortality at 100 ppm", "setting": "Meloidogyne incognita; [5]", "value": 84, "unit": "%"}, {"measurement": "mortality at 200 ppm", "setting": "Meloidogyne incognita; [5]", "value": 89, "unit": "%"}, {"measurement": "mortality at 300 ppm", "setting": "Meloidogyne incognita; [5]", "value": 100, "unit": "%"}, {"measurement": "mortality at 400 ppm", "setting": "Meloidogyne incognita; [5]", "value": 100, "unit": "%"}, {"measurement": "mortality at 50 ppm", "setting": "Caenorhabditis elegans; 24 h", "value": 12, "unit": "%"}, {"measurement": "mortality at 100 ppm", "setting": "Caenorhabditis elegans; 24 h", "value": 14, "unit": "%"}, {"measurement": "mortality at 200 ppm", "setting": "Caenorhabditis elegans; 24 h", "value": 16, "unit": "%"}, {"measurement": "mortality at 300 ppm", "setting": "Caenorhabditis elegans; 24 h", "value": 20, "unit": "%"}, {"measurement": "mortality at 400 ppm", "setting": "Caenorhabditis elegans; 24 h", "value": 27, "unit": "%"}, {"measurement": "mortality at 50 ppm", "setting": "Caenorhabditis elegans; [1]", "value": 10, "unit": "%"}, {"measurement": "mortality at 100 ppm", "setting": "Caenorhabditis elegans; [1]", "value": 12, "unit": "%"}, {"measurement": "mortality at 200 ppm", "setting": "Caenorhabditis elegans; [1]", "value": 14, "unit": "%"}, {"measurement": "mortality at 300 ppm", "setting": "Caenorhabditis elegans; [1]", "value": 18, "unit": "%"}, {"measurement": "mortality at 400 ppm", "setting": "Caenorhabditis elegans; [1]", "value": 26, "unit": "%"}, {"measurement": "mortality at 50 ppm", "setting": "Caenorhabditis elegans; 48 h", "value": 25, "unit": "%"}, {"measurement": "mortality at 100 ppm", "setting": "Caenorhabditis elegans; 48 h", "value": 30, "unit": "%"}, {"measurement": "mortality at 200 ppm", "setting": "Caenorhabditis elegans; 48 h", "value": 33, "unit": "%"}, {"measurement": "mortality at 300 ppm", "setting": "Caenorhabditis elegans; 48 h", "value": 39, "unit": "%"}, {"measurement": "mortality at 400 ppm", "setting": "Caenorhabditis elegans; 48 h", "value": 58, "unit": "%"}, {"measurement": "mortality at 50 ppm", "setting": "Caenorhabditis elegans; [2]", "value": 23, "unit": "%"}, {"measurement": "mortality at 100 ppm", "setting": "Caenorhabditis elegans; [2]", "value": 28, "unit": "%"}, {"measurement": "mortality at 200 ppm", "setting": "Caenorhabditis elegans; [2]", "value": 31, "unit": "%"}, {"measurement": "mortality at 300 ppm", "setting": "Caenorhabditis elegans; [2]", "value": 37, "unit": "%"}, {"measurement": "mortality at 400 ppm", "setting": "Caenorhabditis elegans; [2]", "value": 57, "unit": "%"}, {"measurement": "mortality at 50 ppm", "setting": "Caenorhabditis elegans; 72 h", "value": 44, "unit": "%"}, {"measurement": "mortality at 100 ppm", "setting": "Caenorhabditis elegans; 72 h", "value": 48, "unit": "%"}, {"measurement": "mortality at 200 ppm", "setting": "Caenorhabditis elegans; 72 h", "value": 58, "unit": "%"}, {"measurement": "mortality at 300 ppm", "setting": "Caenorhabditis elegans; 72 h", "value": 65, "unit": "%"}, {"measurement": "mortality at 400 ppm", "setting": "Caenorhabditis elegans; 72 h", "value": 83, "unit": "%"}, {"measurement": "mortality at 50 ppm", "setting": "Caenorhabditis elegans; [3]", "value": 41, "unit": "%"}, {"measurement": "mortality at 100 ppm", "setting": "Caenorhabditis elegans; [3]", "value": 45, "unit": "%"}, {"measurement": "mortality at 200 ppm", "setting": "Caenorhabditis elegans; [3]", "value": 56, "unit": "%"}, {"measurement": "mortality at 300 ppm", "setting": "Caenorhabditis elegans; [3]", "value": 63, "unit": "%"}, {"measurement": "mortality at 400 ppm", "setting": "Caenorhabditis elegans; [3]", "value": 81, "unit": "%"}, {"measurement": "mortality at 50 ppm", "setting": "Caenorhabditis elegans; 120 h", "value": 66, "unit": "%"}, {"measurement": "mortality at 100 ppm", "setting": "Caenorhabditis elegans; 120 h", "value": 73, "unit": "%"}, {"measurement": "mortality at 200 ppm", "setting": "Caenorhabditis elegans; 120 h", "value": 85, "unit": "%"}, {"measurement": "mortality at 300 ppm", "setting": "Caenorhabditis elegans; 120 h", "value": 90, "unit": "%"}, {"measurement": "mortality at 400 ppm", "setting": "Caenorhabditis elegans; 120 h", "value": 99, "unit": "%"}, {"measurement": "mortality at 50 ppm", "setting": "Caenorhabditis elegans; [4]", "value": 64, "unit": "%"}, {"measurement": "mortality at 100 ppm", "setting": "Caenorhabditis elegans; [4]", "value": 71, "unit": "%"}, {"measurement": "mortality at 200 ppm", "setting": "Caenorhabditis elegans; [4]", "value": 84, "unit": "%"}, {"measurement": "mortality at 300 ppm", "setting": "Caenorhabditis elegans; [4]", "value": 89, "unit": "%"}, {"measurement": "mortality at 400 ppm", "setting": "Caenorhabditis elegans; [4]", "value": 99, "unit": "%"}, {"measurement": "mortality at 50 ppm", "setting": "Caenorhabditis elegans; 168 h", "value": 89, "unit": "%"}, {"measurement": "mortality at 100 ppm", "setting": "Caenorhabditis elegans; 168 h", "value": 93, "unit": "%"}, {"measurement": "mortality at 200 ppm", "setting": "Caenorhabditis elegans; 168 h", "value": 98, "unit": "%"}, {"measurement": "mortality at 300 ppm", "setting": "Caenorhabditis elegans; 168 h", "value": 100, "unit": "%"}, {"measurement": "mortality at 400 ppm", "setting": "Caenorhabditis elegans; 168 h", "value": 100, "unit": "%"}, {"measurement": "mortality at 50 ppm", "setting": "Caenorhabditis elegans; [5]", "value": 89, "unit": "%"}, {"measurement": "mortality at 100 ppm", "setting": "Caenorhabditis elegans; [5]", "value": 92, "unit": "%"}, {"measurement": "mortality at 200 ppm", "setting": "Caenorhabditis elegans; [5]", "value": 98, "unit": "%"}, {"measurement": "mortality at 300 ppm", "setting": "Caenorhabditis elegans; [5]", "value": 100, "unit": "%"}, {"measurement": "mortality at 400 ppm", "setting": "Caenorhabditis elegans; [5]", "value": 100, "unit": "%"}]}]}
